For the test, the system named is L1210 leukemia ip in BDF1 mice, survival T/C. Nature of the test: NCI In Vivo Anticancer Drug Screen. Data for tumor model L1210 Leukemia (intraperitoneal) in B6D2F1 (BDF1) mice. The settings on record: higher = longer survival. The method in brief: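 Transplantable tumor model; survival measured in treated vs vehicle control mice. Value = treated/control.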
Where [1] appears, read: endpoint: mean survival time, dose: 100.0 mg/kg/injection, schedule: Q01DX009 (ip), vehicle: saline.
Setting [2] is: endpoint: mean survival time, dose: 200.0 mg/kg/injection, schedule: Q01DX009 (ip), vehicle: saline.
Setting [3] is: endpoint: mean survival time, dose: 100.0 mg/kg/injection, schedule: Q01DX001 (ip), vehicle: Klucel (hydroxypropylcellulose) (HPC).
The mark [4] stands for this setting: endpoint: mean survival time, dose: 200.0 mg/kg/injection, schedule: Q01DX001 (ip), vehicle: Klucel (hydroxypropylcellulose) (HPC).
The mark [5] stands for this setting: endpoint: mean survival time, dose: 100.0 mg/kg/injection, schedule: Q01DX009 (ip), vehicle: Klucel (hydroxypropylcellulose) (HPC).
Setting [6] is: endpoint: mean survival time, dose: 200.0 mg/kg/injection, schedule: Q01DX009 (ip), vehicle: Klucel (hydroxypropylcellulose) (HPC).
The mark [7] stands for this setting: endpoint: mean survival time, dose: 400.0 mg/kg/injection, schedule: Q01DX009 (ip), vehicle: Klucel (hydroxypropylcellulose) (HPC).
Setting [8] is: endpoint: mean survival time, dose: 10.0 mg/kg/injection, schedule: Q01DX001 (ip), vehicle: saline.
[9] abbreviates: endpoint: mean survival time, dose: 20.0 mg/kg/injection, schedule: Q01DX001 (ip), vehicle: saline.

In PubChem BioAssay AID248 (DTP/NCI, 2004) one finds T/C data, which are given here for 10 molecules.

Where “and” joins values, the source holds several entries; their conditions need not be identical. Equal entries are not always repeated. Toxic doses and inconclusive results are not listed.

On to `Cc1cc(NCCCCCCNc2cc(C)nc3ccc(N)cc23)c2cc(N)ccc2n1`, for which the T/C is, setting by setting: (endpoint: mean survival time, dose: 4.7 mg/kg/injection, schedule: Q01DX009 (ip), vehicle: saline with Tween-80) 117 % of control; (endpoint: mean survival time, dose: 16.5 mg/kg/injection, schedule: Q01DX009 (ip), vehicle: saline) 118 % of control; (endpoint: mean survival time, dose: 18.75 mg/kg/injection, schedule: Q01DX009 (ip), vehicle: saline with Tween-80) 152 % of control; (endpoint: mean survival time, dose: 37.5 mg/kg/injection, schedule: Q01DX009 (ip), vehicle: saline with Tween-80) 176 % of control; (endpoint: mean survival time, dose: 37.5 mg/kg/injection, schedule: Q01DX009 (ip), vehicle: saline) 164 % of control; (endpoint: mean survival time, dose: 75.0 mg/kg/injection, schedule: Q01DX009 (ip), vehicle: acetone) 160 % of control. Further, the T/C runs as follows: (endpoint: mean survival time, dose: 75.0 mg/kg/injection, schedule: Q01DX009 (ip), vehicle: saline with Tween-80) 150 % of control; (endpoint: mean survival time, dose: 75.0 mg/kg/injection, schedule: Q01DX009 (ip), vehicle: saline) 182 % of control; (endpoint: mean survival time, dose: 150.0 mg/kg/injection, schedule: Q01DX009 (ip), vehicle: acetone) 161 % of control; (endpoint: mean survival time, dose: 150.0 mg/kg/injection, schedule: Q01DX009 (ip), vehicle: saline with Tween-80) 102 % of control; (endpoint: mean survival time, dose: 180.0 mg/kg/injection, schedule: Q04DX003 (ip), vehicle: Klucel (hydroxypropylcellulose) (HPC)) 160 % of control; (endpoint: mean survival time, dose: 180.0 mg/kg/injection, schedule: Q04DX003 (ip), vehicle: saline with Tween-80) 152 % of control. For the same molecule, the T/C reads like this: (endpoint: mean survival time, dose: 266.0 mg/kg/injection, schedule: Q04DX003 (ip), vehicle: saline with Tween-80) 111 % of control; (endpoint: mean survival time, dose: 300.0 mg/kg/injection, schedule: Q01DX009 (ip), vehicle: saline with Tween-80) 94 % of control; (endpoint: mean survival time, dose: 400.0 mg/kg/injection, schedule: Q04DX003 (ip), vehicle: Klucel (hydroxypropylcellulose) (HPC)) 172 % of control; (endpoint: mean survival time, dose: 600.0 mg/kg/injection, schedule: Q04DX003 (ip), vehicle: Klucel (hydroxypropylcellulose) (HPC)) 197 % of control; (endpoint: mean survival time, dose: 600.0 mg/kg/injection, schedule: Q04DX003 (ip), vehicle: saline with Tween-80) 198 % of control; (endpoint: median survival time, dose: 4.0 mg/kg/injection, schedule: Q01DX001 (ip), vehicle: lactic acid) 101 % of control. The T/C was 100 % of control (endpoint: median survival time, dose: 8.0 mg/kg/injection, schedule: Q01DX001 (ip), vehicle: lactic acid); 103 % of control (endpoint: median survival time, dose: 16.0 mg/kg/injection, schedule: Q01DX001 (ip), vehicle: lactic acid); 97 % of control (endpoint: median survival time, dose: 16.0 mg/kg/injection, schedule: Q01DX001 (oral), vehicle: citric acid); 100 % of control (endpoint: median survival time, dose: 16.0 mg/kg/injection, schedule: Q01DX001 (oral), vehicle: lactic acid); 111 % of control (endpoint: median survival time, dose: 32.0 mg/kg/injection, schedule: Q01DX001 (ip), vehicle: lactic acid); 103 % of control (endpoint: median survival time, dose: 32.0 mg/kg/injection, schedule: Q01DX001 (oral), vehicle: citric acid). In addition, the T/C (endpoint: median survival time, dose: 32.0 mg/kg/injection, schedule: Q01DX001 (oral), vehicle: lactic acid) was 100 % of control; the T/C (endpoint: median survival time, dose: 64.0 mg/kg/injection, schedule: Q01DX001 (ip), vehicle: Klucel (hydroxypropylcellulose) (HPC)) is 120 % of control; the T/C (endpoint: median survival time, dose: 64.0 mg/kg/injection, schedule: Q01DX001 (oral), vehicle: citric acid) is 102 % of control; the T/C (endpoint: median survival time, dose: 64.0 mg/kg/injection, schedule: Q01DX001 (oral), vehicle: lactic acid) is 103 % of control; the T/C (endpoint: median survival time, dose: 128.0 mg/kg/injection, schedule: Q01DX001 (ip), vehicle: Klucel (hydroxypropylcellulose) (HPC)) was 153 % of control; the T/C (endpoint: median survival time, dose: 128.0 mg/kg/injection, schedule: Q01DX001 (oral), vehicle: citric acid) is 97 % of control. The T/C runs as follows: (endpoint: median survival time, dose: 128.0 mg/kg/injection, schedule: Q01DX001 (oral), vehicle: lactic acid) 95 % of control; (endpoint: median survival time, dose: 256.0 mg/kg/injection, schedule: Q01DX001 (ip), vehicle: Klucel (hydroxypropylcellulose) (HPC)) 175 % of control; (endpoint: median survival time, dose: 256.0 mg/kg/injection, schedule: Q01DX001 (oral), vehicle: citric acid) 87 % of control; (endpoint: median survival time, dose: 256.0 mg/kg/injection, schedule: Q01DX001 (oral), vehicle: lactic acid) 94 % of control; (endpoint: median survival time, dose: 512.0 mg/kg/injection, schedule: Q01DX001 (ip), vehicle: Klucel (hydroxypropylcellulose) (HPC)) 180 % of control.

Turning to `CC(C)(O)C(I)C[n+]1ccccc1` (stereo unspecified), the T/C was 107 % of control (endpoint: mean survival time, dose: 50.0 mg/kg/injection, schedule: Q01DX009 (ip), vehicle: saline); 124 % of control (endpoint: mean survival time, dose: 88.0 mg/kg/injection, schedule: Q04DX003 (ip), vehicle: saline with Tween-80); 110 % of control and 113 % of control under setting [1]; 106 % of control (endpoint: mean survival time, dose: 100.0 mg/kg/injection, schedule: Q04DX003 (ip), vehicle: saline with Tween-80); 102 % of control and 111 % of control (endpoint: mean survival time, dose: 100.0 mg/kg/injection, schedule: Q04DX003 (ip), vehicle: saline); 119 % of control (endpoint: mean survival time, dose: 133.0 mg/kg/injection, schedule: Q04DX003 (ip), vehicle: saline with Tween-80). In addition, the T/C (endpoint: mean survival time, dose: 175.0 mg/kg/injection, schedule: Q04DX003 (ip), vehicle: saline) was 106 % of control; the T/C under setting [2] is 117 % of control and 121 % of control; the T/C (endpoint: mean survival time, dose: 200.0 mg/kg/injection, schedule: Q04DX003 (ip), vehicle: saline with Tween-80) was 117 % of control; the T/C (endpoint: mean survival time, dose: 200.0 mg/kg/injection, schedule: Q04DX003 (ip), vehicle: saline) was 108 % of control; the T/C (endpoint: mean survival time, dose: 265.0 mg/kg/injection, schedule: Q04DX003 (ip), vehicle: saline) is 114 % of control; the T/C (endpoint: mean survival time, dose: 400.0 mg/kg/injection, schedule: Q04DX003 (ip), vehicle: saline) is 121 % of control. Further, the T/C (endpoint: mean survival time, dose: 600.0 mg/kg/injection, schedule: Q04DX003 (ip), vehicle: saline) was 90 % of control.

As to `CC(=O)c1cccc(NC(=O)N2CCN(c3ccccc3)CC2)c1`, the T/C (endpoint: mean survival time, dose: 100.0 mg/kg/injection, schedule: Q01DX009 (ip), vehicle: saline with Tween-80) is 111 % of control and the T/C (endpoint: mean survival time, dose: 200.0 mg/kg/injection, schedule: Q01DX009 (ip), vehicle: saline with Tween-80) is 100 % of control.

Take `CC(C)=NNC(=O)CC#N`: the T/C is 86 % of control under setting [3] and 94 % of control under setting [4].

As to `C#CC(C)N1CCC2(CC1)C(=O)NCN2c1ccccc1` (stereo unspecified), the T/C reads like this: under setting [3], 98 % of control; under setting [4], 97 % of control; (endpoint: mean survival time, dose: 400.0 mg/kg/injection, schedule: Q01DX001 (ip), vehicle: Klucel (hydroxypropylcellulose) (HPC)) 95 % of control.

As to `c1cncc(SC23CC4CC(CC(C4)C2)C3)c1`, the T/C under setting [5] was 106 % of control, the T/C under setting [6] was 93 % of control and the T/C under setting [7] is 106 % of control.

In the case of `CN1C(=O)N(C)C(=O)C(Cc2ccccc2)(Cc2ccccc2)C1=O`, the T/C is, setting by setting: under setting [8], 109 % of control; under setting [9], 105 % of control.

For the molecule `C[N+](C)(Cc1ccccc1)C1c2ccccc2-c2ccc(Cl)cc21` (stereo unspecified), the T/C is 91 % of control (endpoint: mean survival time, dose: 6.25 mg/kg/injection, schedule: Q04DX002 (ip), vehicle: saline with Tween-80); 94 % of control (endpoint: mean survival time, dose: 12.5 mg/kg/injection, schedule: Q04DX002 (ip), vehicle: saline with Tween-80); 88 % of control (endpoint: mean survival time, dose: 25.0 mg/kg/injection, schedule: Q04DX002 (ip), vehicle: saline with Tween-80).

Turning to `OCCN(CCO)CCN1c2ccccc2Sc2ccccc21`, the T/C is, setting by setting: (endpoint: mean survival time, dose: 5.0 mg/kg/injection, schedule: Q01DX001 (ip), vehicle: saline) 95 % of control; under setting [8], 97 % of control; under setting [9], 92 % of control; (endpoint: mean survival time, dose: 40.0 mg/kg/injection, schedule: Q01DX001 (ip), vehicle: saline) 95 % of control; (endpoint: mean survival time, dose: 80.0 mg/kg/injection, schedule: Q01DX001 (ip), vehicle: saline) 95 % of control; (endpoint: mean survival time, dose: 100.0 mg/kg/injection, schedule: Q01DX001 (ip), vehicle: saline) 96 % of control. In addition, the T/C (endpoint: mean survival time, dose: 200.0 mg/kg/injection, schedule: Q01DX001 (ip), vehicle: saline) was 112 % of control.

As for `CC(=O)c1c(OC(=O)c2ccccc2)cc(OC(=O)c2ccccc2)cc1OC(=O)c1ccccc1`, the T/C runs as follows: under setting [5], 101 % of control; under setting [1], 97 % of control; under setting [6], 93 % of control; under setting [2], 106 % of control; under setting [7], 95 % of control; (endpoint: mean survival time, dose: 400.0 mg/kg/injection, schedule: Q01DX009 (ip), vehicle: saline) 100 % of control.
